Test system: LG0703-F948-PDC spheroids with HUVEC/MSC, viability
Test: Anticancer human tumor LG0703-F948-PDC patient-derived lung adenocarcinoma cell line growth inhibition [IpAb]
Conditions: for IC50: curve of first compound; for viability, T/C: stronger effect = lower value
Text: Combinatorial screen of targeted agents with ipatasertib and abemaciclib in multi-cell type tumor spheroids
A high-throughput screen of multi-cell type tumor spheroids was designed to identify active combinations of targeted small molecules and ipatasertib or abemaciclib. Complex spheroids include a stromal component modeled by human endothelial cells (HUVEC) and fibroblasts modeled by human mesenchymal stem cells (MSCs). The concentration ranges selected for each drug and investigational agent were based upon clinically achievable concentrations if the clinical Cmax of the agent was known.
Compounds. The drugs and investigational agents: ipatasertib (NSC767898), abemaciclib(NSC768073), selumetinib (NSC741078), trametinib (758246), adavosertib (NSC754352), everolimus (NSC733504), sapanisertib (NSC764658), vemurafenib (NSC761431), venetoclax (NSC766270), copanlisib (NSC809693), apelisib (NSC765974), palbociblib (NSC758247), vemurafenib (NSC761431), dabrafenib (NSC764134), ravoxertinib (NSC781343), BMS-387032 (NSC767048), sotorasib (NSC818433), talazoparib (NSC767125) and afursertib (NSC778305), were obtained from the National Cancer Institute (NCI) Developmental Therapeutics Program Chemical Repository. The FDA-approved anticancer drug set is available from the NCI Developmental Therapeutics Program. […] The stock solutions were prepared in dimethyl sulfoxide (DMSO, Sigma-Aldrich, St. Louis, MO, cat. D2650) at 800-fold the tested concentration and stored at -70 degrees C prior to their use. All drugs and investigational agents were tested over a range starting from a high concentration at or near the clinical Cmax and decreasing in half-log increments. If the clinical Cmax for an agent had not been determined, the highest concentration tested was 10 microM.
NCI60 Cell Culture. NCI60 cell lines were obtained from the NCI Developmental Therapeutics Program Tumor Repository. For each lot of cells, the Repository performed Applied Biosystems AmpFLSTR Identifiler testing with PCR amplification to confirm consistency with the published Identifier STR profile for each cell line. Cells were kept in continuous culture for no more than 20 passages. The optimal seeding densities for each of the cell lines at each time point assessed were determined prior to performing the concentration response studies. Briefly, the NCI60 human tumor lines were grown as monolayers in RPMI 1640 medium supplemented with 10% FBS and 2 mmol/L L-glutamine.
An additional 9 lines were from the NCI60 cell line panel including MDA-MB-231 breast carcinoma, MDA-MB-468 breast carcinoma, MCF7 breast carcinoma, Hs578T breast carcinoma, MALME-3M melanoma, SK-MEL-2 melanoma, SK-OV-3 ovarian carcinoma, DU-145 prostate carcinoma, PC-3 prostate carcinoma, all cell lines along with major genetic alterations are listed on Table 2. Pooled donor human umbilical vein endothelial cells (HUVEC, Lonza, cat. CC-2519) and human mesenchymal stem cells (hMSC, Lonza, cat. PT-2501) were purchased from Lonza (Walkersville, MD).
PDMR cell lines were grown in complete medium (DC medium): Dulbecco's modified Eagle's medium (DMEM)/F12 supplemented with 5% fetal bovine serum (FBS), 2 mM L-glutamine, 100 U/mL penicillin and 100 µg/ml streptomycin, 0.4 µg/ml hydrocortisone, 10 ng/ml epidermal growth factor (EGF) recombinant human protein, 24 µg/mL adenine, and 0.1 mg/mL primocin. During culture from frozen stock vials, PDMR cells were cultured in the same medium containing 10 µM Y-27632 (see Table 3). The PDCs were cultured in complete DMEM/F12 media without 10 microM Y-27632 dihydrochloride for at least two passages prior to the screen. The pooled donor HUVEC and hMSC were cultured in endothelial cell growth medium 2 (PromoCell, Heidelberg, Germany, cat. C-22011) and mesenchymal stem cell growth medium 2 (PromoCell, cat. C-28009), respectively. For all experiments, HUVEC and hMSC were used at passages </=5.
[…]

[1] = second compound 0.1 µM, first compound 0.0316 µM
[2] = second compound 0.1 µM, first compound 0.1 µM
[3] = second compound 0.1 µM, first compound 0.316 µM
[4] = second compound 0.1 µM, first compound 1 µM
[5] = second compound 0.316 µM, first compound 0.0316 µM
[6] = second compound 0.316 µM, first compound 0.1 µM
[7] = second compound 0.316 µM, first compound 0.316 µM
[8] = second compound 0.316 µM, first compound 1 µM
[9] = second compound 1 µM, first compound 0.0316 µM
[10] = second compound 1 µM, first compound 0.1 µM
[11] = second compound 1 µM, first compound 0.316 µM
[12] = second compound 1 µM, first compound 1 µM
[13] = second compound 3.16 µM, first compound 0.0316 µM
[14] = second compound 3.16 µM, first compound 0.1 µM
[15] = second compound 3.16 µM, first compound 0.316 µM
[16] = second compound 3.16 µM, first compound 1 µM
[17] = second compound 10 µM, first compound 0.0316 µM
[18] = second compound 10 µM, first compound 0.1 µM
[19] = second compound 10 µM, first compound 0.316 µM
[20] = second compound 10 µM, first compound 1 µM
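Further: spheroids exposed to compounds for seven days before readout.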
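Wherever viability, T/C is given: T/C percent relative to DMSO vehicle wells set as 100% viability.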

CC(=O)c1c(C)c2cnc(Nc3ccc(N4CCNCC4)cn3)nc2n(C2CCCC2)c1=O + CC(C)NCC(C(=O)N1CCN(c2ncnc3c2C(C)CC3O)CC1)c1ccc(Cl)cc1
IC50 (second compound 0.1 µM): > 300 nM
IC50 (second compound 0.316 µM): > 300 nM
IC50 (second compound 1 µM): 2.55 nM
IC50 (second compound 3.16 µM): < 0.949 nM
IC50 (second compound 10 µM): < 0.949 nM
viability, T/C (second compound 0.1 µM, first compound 0.000949 µM): 86.8%
viability, T/C (second compound 0.1 µM, first compound 0.003 µM): 86%
viability, T/C (second compound 0.1 µM, first compound 0.00949 µM): 84.8%
viability, T/C (second compound 0.1 µM, first compound 0.03 µM): 73.3%
viability, T/C (second compound 0.1 µM, first compound 0.0949 µM): 80.4%
viability, T/C (second compound 0.1 µM, first compound 0.3 µM): 73.4%
viability, T/C (second compound 0.316 µM, first compound 0.000949 µM): 70.5%
viability, T/C (second compound 0.316 µM, first compound 0.003 µM): 69.7%
viability, T/C (second compound 0.316 µM, first compound 0.00949 µM): 60.5%
viability, T/C (second compound 0.316 µM, first compound 0.03 µM): 62.5%
viability, T/C (second compound 0.316 µM, first compound 0.0949 µM): 58.4%
viability, T/C (second compound 0.316 µM, first compound 0.3 µM): 60.3%
viability, T/C (second compound 1 µM, first compound 0.000949 µM): 54.6%
viability, T/C (second compound 1 µM, first compound 0.003 µM): 53.1%
viability, T/C (second compound 1 µM, first compound 0.00949 µM): 42.4%
viability, T/C (second compound 1 µM, first compound 0.03 µM): 41.8%
viability, T/C (second compound 1 µM, first compound 0.0949 µM): 42.1%
viability, T/C (second compound 1 µM, first compound 0.3 µM): 43.9%
viability, T/C (second compound 3.16 µM, first compound 0.000949 µM): 50.1%
viability, T/C (second compound 3.16 µM, first compound 0.003 µM): 41.8%
viability, T/C (second compound 3.16 µM, first compound 0.00949 µM): 41.7%
viability, T/C (second compound 3.16 µM, first compound 0.03 µM): 42.2%
viability, T/C (second compound 3.16 µM, first compound 0.0949 µM): 34.9%
viability, T/C (second compound 3.16 µM, first compound 0.3 µM): 33.5%
viability, T/C (second compound 10 µM, first compound 0.000949 µM): 41.5%
viability, T/C (second compound 10 µM, first compound 0.003 µM): 37.9%
viability, T/C (second compound 10 µM, first compound 0.00949 µM): 43.5%
viability, T/C (second compound 10 µM, first compound 0.03 µM): 40%
viability, T/C (second compound 10 µM, first compound 0.0949 µM): 33.5%
viability, T/C (second compound 10 µM, first compound 0.3 µM): 27.5%

COc1c(OCCCN2CCOCC2)ccc2c3n(c(=NC(=O)c4cnc(N)nc4)nc12)CCN3 + CC(C)NCC(C(=O)N1CCN(c2ncnc3c2C(C)CC3O)CC1)c1ccc(Cl)cc1
IC50 (second compound 0.1 µM): 26.6 nM
IC50 (second compound 0.316 µM): 13.6 nM
IC50 (second compound 1 µM): 3.91 nM
IC50 (second compound 3.16 µM): < 3.16 nM
IC50 (second compound 10 µM): < 3.16 nM
viability, T/C (second compound 0.1 µM, first compound 0.00316 µM): 84.6%
viability, T/C (second compound 0.1 µM, first compound 0.01 µM): 70.1%
viability, T/C [1]: 47%
viability, T/C [2]: 21.8%
viability, T/C [3]: 6.53%
viability, T/C [4]: 4.98%
viability, T/C (second compound 0.316 µM, first compound 0.00316 µM): 66.5%
viability, T/C (second compound 0.316 µM, first compound 0.01 µM): 51.5%
viability, T/C [5]: 39.8%
viability, T/C [6]: 15.7%
viability, T/C [7]: 5.88%
viability, T/C [8]: 3.95%
viability, T/C (second compound 1 µM, first compound 0.00316 µM): 52.1%
viability, T/C (second compound 1 µM, first compound 0.01 µM): 42.5%
viability, T/C [9]: 30.1%
viability, T/C [10]: 11.3%
viability, T/C [11]: 5.86%
viability, T/C [12]: 4.35%
viability, T/C (second compound 3.16 µM, first compound 0.00316 µM): 41.9%
viability, T/C (second compound 3.16 µM, first compound 0.01 µM): 35.7%
viability, T/C [13]: 19.8%
viability, T/C [14]: 11.6%
viability, T/C [15]: 4.56%
viability, T/C [16]: 4.47%
viability, T/C (second compound 10 µM, first compound 0.00316 µM): 38.6%
viability, T/C (second compound 10 µM, first compound 0.01 µM): 28.4%
viability, T/C [17]: 25.3%
viability, T/C [18]: 7.44%
viability, T/C [19]: 3.76%
viability, T/C [20]: 2.45%

Cc1nc(NC(=O)N2CCCC2C(N)=O)sc1-c1ccnc(C(C)(C)C(F)(F)F)c1 (stereo not given) + CC(C)NCC(C(=O)N1CCN(c2ncnc3c2C(C)CC3O)CC1)c1ccc(Cl)cc1
IC50 (second compound 0.1 µM): 929 nM
IC50 (second compound 0.316 µM): 366 nM
IC50 (second compound 1 µM): 64.8 nM
IC50 (second compound 3.16 µM): < 31.6 nM
IC50 (second compound 10 µM): < 31.6 nM
viability, T/C [1]: 77.9%
viability, T/C [2]: 76.6%
viability, T/C [3]: 64.3%
viability, T/C [4]: 50.7%
viability, T/C (second compound 0.1 µM, first compound 3.16 µM): 22.4%
viability, T/C (second compound 0.1 µM, first compound 10 µM): 2.44%
viability, T/C [5]: 59.6%
viability, T/C [6]: 60.8%
viability, T/C [7]: 52.1%
viability, T/C [8]: 36.5%
viability, T/C (second compound 0.316 µM, first compound 3.16 µM): 21.1%
viability, T/C (second compound 0.316 µM, first compound 10 µM): 2.34%
viability, T/C [9]: 54%
viability, T/C [10]: 46.7%
viability, T/C [11]: 39.7%
viability, T/C [12]: 32.1%
viability, T/C (second compound 1 µM, first compound 3.16 µM): 13.8%
viability, T/C (second compound 1 µM, first compound 10 µM): 1.78%
viability, T/C [13]: 45.5%
viability, T/C [14]: 39.7%
viability, T/C [15]: 35.8%
viability, T/C [16]: 24.1%
viability, T/C (second compound 3.16 µM, first compound 3.16 µM): 13.1%
viability, T/C (second compound 3.16 µM, first compound 10 µM): 2.03%
viability, T/C [17]: 39.5%
viability, T/C [18]: 33.4%
viability, T/C [19]: 35.9%
viability, T/C [20]: 19%
viability, T/C (second compound 10 µM, first compound 3.16 µM): 12.3%
viability, T/C (second compound 10 µM, first compound 10 µM): 1.55%

From PubChem BioAssay AID2060330 (Molecular Pharmacology Branch, DTP, NCI, 2025)
